Drawing on patent publication US12240812B2, “Compound for inhibiting PGE2/EP4 signaling transduction inhibiting, preparation method therefor, and medical uses thereof” (Keythera (Suzhou) Pharmaceuticals Co. Ltd., priority 2019, dated 2025), this text covers IC50 for 26 molecules.

The subject of this assay is PGE2/EP4 signal transduction in MCF7 cells. As to the kind of experiment: Determination of MCF7 cAMP (PGE2-stimulated, HTRF). It counts as cell-based. The conditions noted are these: Homo sapiens; MCF7 cells, 10 nM PGE2 stimulation, cAMP HTRF; read-out: MCF7 cAMP IC50. The method, then:
• a) MCF7 cells (ATCC, 6000 cells/well/40 μl) were inoculated into a 384-well cell culture plate containing a medium (DMEM containing 10% FBS and 1×PS), and incubated overnight at 37° C. and 5% CO2. • b) The medium was removed, 40 μl/well of serum-free medium was added, and the cells were incubated at 37° C. and 5% CO2 for 5 hours. • c) The medium was replaced with 18 μL/well of HBSS buffer (Hepes 20 mM, 0.1% BSA, 500 μM IBMX). • d) The compound in DMSO was diluted (1/5 dilution, 9+0 dose). • e) 2 μL of the compound in d) was added to 98 μL of HBSS buffer. • f) 1 μL/well of the diluted compound in e) was added to the cells, with a final starting concentration of 1 μM, and the cells were incubated at 37° C. for 1 hour. • g) The cells were stimulated with 1 μL/well of PGE2 (10 mM DMSO stock solution) (final concentration: 10 nM, and DMSO final concentration: 0.2%), and incubated at 37° C. for 30 minutes. • h) After the incubation, 10 μL/well of cAMP-d2 and 10 μL/well of anti-cAMP were added, RT 1 h. • i) HTRF signals (665 nm/615 nm) were read on Envision. Data Analysis: • High control: 1 μM E7046 • Low control: DMSO • Background: 30 μL/well of lysis buffer+10 μL/well of anti-cAMP • Analytical data: original date—background Inhibition %: 100−100×(high control−analytical data)/(high control−low control)
Background: TR-FRET usually uses a lanthanide donor and a delayed reading to cut background.

`CC(NC(=O)c1cccc2ccn(Cc3cc4ccccc4o3)c12)C12CC(C(=O)O)(C1)C2` (racemic) [Compound 20, 3-(1-(1-(Benzofuran-2-ylmethyl)-1H-indole-7-carboxamido)ethyl)bicyclo[1.1.1]pentane-1-carboxylic acid]: the IC50 – broadly, the concentration that inhibits the measured activity by half – amounted to 34 nM. Take `CC(NC(=O)c1cncc2ccn(Cc3cc4ccccc4o3)c12)C12CC(C(=O)O)(C1)C2` (racemic) [Compound 26, 3-(1-(1-(Benzofuran-2-ylmethyl)-1H-pyrrolo[3,2-c]pyridine-7-carboxamido)ethyl)bicyclo[1.1.1]pentane-1-carboxylic acid]: the IC50 turned out to be 60 nM. As to `O=C(NC1(C23CC(C(=O)O)(C2)C3)CC1)c1cccc2ccn(Cc3ccc4ccccc4n3)c12` [Compound 3, 3-(1-(1-(Quinolin-2-ylmethyl)-1H-indole-7-carboxamido)cyclopropyl)bicyclo[1.1.1]pentane-1-carboxylic acid], the half-inhibitory concentration (IC50) is 7.8 nM. In the case of `O=C(NC1(C23CC(C(=O)O)(C2)C3)CC1)c1cccc2ccn(Cc3ccc(Cl)cc3)c12` [Compound 4, 3-(1-(1-(4-Chlorobenzyl)-1H-indole-7-carboxamido)cyclopropyl)bicyclo[1.1.1]pentane-1-carboxylic acid] it was 61 nM; in that of `O=C(NC1(C23CC(C(=O)O)(C2)C3)CC1)c1cccc2ccn(Cc3ccc(-c4ccccc4)nc3)c12` [Compound 5, 3-(1-(1-((6-Phenylpyridin-3-yl)methyl)-1H-indole-7-carboxamido)cyclopropyl)bicyclo[1.1.1]pentane-1-carboxylic acid], 5.5 nM; in that of `O=C(NC1(C23CC(C(=O)O)(C2)C3)CC1)c1cc(Cl)cc2ccn(Cc3ccc(C(F)(F)F)cc3)c12` [Compound 8, 3-(1-(5-Chloro-1-(4-(trifluoromethyl)benzyl)-1H-indole-7-carboxamido)cyclopropyl)bicyclo[1.1.1]pentane-1-carboxylic acid], 2.9 nM. With `O=C(NC1(C23CC(C(=O)O)(C2)C3)CC1)c1cccc2ccn(Cc3ccc(N4CCOCC4)cn3)c12` [Compound 10, 3-(1-(1-((5-Morpholinopyridin-2-yl)methyl)-1H-indole-7-carboxamido)cyclopropyl)bicyclo[1.1.1]pentane-1-carboxylic acid], the IC50 came to 72 nM.

As for `O=C(NC1(C23CC(C(=O)O)(C2)C3)CC1)c1cccc2ccn(Cc3ccc(-c4ccccn4)cn3)c12` [Compound 11, 3-(1-(1-([2,3′-Bipyridin]-6′-ylmethyl)-1H-indole-7-carboxamido)cyclopropyl)bicyclo[1.1.1]pentane-1-carboxylic acid], the IC50 came to 30 nM.

On to `O=C(NC1(C23CC(C(=O)O)(C2)C3)CC1)c1cccc2ccn(Cc3ccc(-c4cccnc4)cn3)c12` [Compound 12, 3-(1-(1-([3,3′-Bipyridin]-6-ylmethyl)-1H-indole-7-carboxamido)cyclopropyl)bicyclo[1.1.1]pentane-1-carboxylic acid], for which the IC50 was found to be 62.9 nM. In the case of `O=C(NC1(C23CC(C(=O)O)(C2)C3)CC1)c1cccc2ccn(Cc3ccc(-c4ccncc4)cn3)c12` [Compound 13, 3-(1-(1-([3,4′-Bipyridin]-6-ylmethyl)-1H-indole-7-carboxamido)cyclopropyl)bicyclo[1.1.1]pentane-1-carboxylic acid] it was 11.5 nM; in that of `Cn1cc(-c2ccc(Cn3ccc4cccc(C(=O)NC5(C67CC(C(=O)O)(C6)C7)CC5)c43)nc2)cn1` [Compound 14, 3-(1-(1-((5-(1-Methyl-1H-pyrazol-4-yl)pyridin-2-yl)methyl)-1H-indole-7-carboxamido)cyclopropyl)bicyclo[1.1.1]pentane-1-carboxylic acid], 24.4 nM. In the case of `O=C(NC1(C23CC(C(=O)O)(C2)C3)CC1)c1cccc2ccn(Cc3ccc(-c4cn[nH]c4)cn3)c12` [Compound 15, 3-(1-(1-((5-(1H-Pyrazol-4-yl)pyridin-2-yl)methyl)-1H-indole-7-carboxamido)cyclopropyl) bicyclo[1.1.1]pentane-1-carboxylic acid], the IC50 was 14.5 nM. The result for `O=C(NC1(C23CC(C(=O)O)(C2)C3)CC1)c1cccc2ccn(Cc3ccc(-c4cnn(CCCO)c4)cn3)c12` [Compound 16, 3-(1-(1-((5-(1-(3-Hydroxypropyl)-1H-pyrazol-4-yl)pyridin-2-yl)methyl)-1H-indole-7-carboxamido)cyclopropyl)bicyclo[1.1.1]pentane-1-carboxylic acid] reads 215 nM; that for `O=C(NC1(C23CC(C(=O)O)(C2)C3)CC1)c1cccc2ccn(Cc3ccc(N4CCCC(O)C4)cn3)c12` (centres unmarked) [Compound 17, 3-(1-(1-((5-(3-Hydroxypiperidin-1-yl)pyridin-2-yl)methyl)-1H-indole-7-carboxamido)cyclopropyl)bicyclo[1.1.1]pentane-1-carboxylic acid], 35 nM. The result for `O=C(NC1(C23CC(C(=O)O)(C2)C3)CC1)c1cccc2ccn(Cc3ccc(C4CC4)cn3)c12` [Compound 18, 3-(1-(1-((5-Cyclopropylpyridin-2-yl)methyl)-1H-indole-7-carboxamido)cyclopropyl)bicyclo[1.1.1]pentane-1-carboxylic acid] reads 62.9 nM; that for `O=C(NC1(C23CC(C(=O)O)(C2)C3)CC1)c1cccc2ccn(Cc3ccc(-c4ccccc4CO)cn3)c12` [Compound 19, 3-(1-(1-((5-(2-(Hydroxymethyl)phenyl)pyridin-2-yl)methyl)-1H-indole-7-carboxamido)cyclopropyl)bicyclo[1.1.1]pentane-1-carboxylic acid], 106 nM. In the case of `C[C@H](NC(=O)c1cccc2ccn(Cc3cc4ccccc4o3)c12)C12CC(C(=O)O)(C1)C2` [Compound 20-5, (S)-3-(1-(1-(benzofuran-2-ylmethyl)-1H-indole-7-carboxamido)ethyl)bicyclo[1.1.1]pentane-1-carboxylic acid], the IC50 is 14 nM. `C[C@@H](NC(=O)c1cccc2ccn(Cc3cc4ccccc4o3)c12)C12CC(C(=O)O)(C1)C2` [Compound 20-6, (R)-3-(1-(1-(benzofuran-2-ylmethyl)-1H-indole-7-carboxamido)ethyl)bicyclo[1.1.1]pentane-1-carboxylic acid]: the IC50 stood at 78 nM. `O=C(NC1(C23CC(C(=O)O)(C2)C3)CC1)c1cccc2ccn(Cc3cc4ccc(F)cc4o3)c12` [Compound 22, 3-(1-(1-((6-Fluorobenzofuran-2-yl)methyl)-1H-indole-7-carboxamido)cyclopropyl)bicyclo[1.1.1]pentane-1-carboxylic acid]: the half-maximal inhibitory concentration (IC50) is 1.4 nM. `O=C(NC1(C23CC(C(=O)O)(C2)C3)CC1)c1cccc2ccn(Cc3nc4ccccc4o3)c12` [Compound 23, 3-(1-(1-(Benzo[d]oxazol-2-ylmethyl)-1H-indole-7-carboxamido)cyclopropyl)bicyclo[1.1.1]pentane-1-carboxylic acid]: the IC50 worked out at 8 nM.

Regarding `O=C(NC1(C23CC(C(=O)O)(C2)C3)CC1)c1cccc2ccn(Cc3nc4ccccc4s3)c12` [Compound 24, 3-(1-(1-(Benzo[d]thiazol-2-ylmethyl)-1H-indole-7-carboxamido)cyclopropyl)bicyclo[1.1.1]pentane-1-carboxylic acid], the half-inhibitory concentration (IC50) came to 12 nM. Take `C[C@H](NC(=O)c1cncc2ccn(Cc3cc4ccccc4o3)c12)C12CC(C(=O)O)(C1)C2` [Compound 26-1, (S)-3-(1-(1-(benzofuran-2-ylmethyl)-1H-pyrrolo[3,2-c]pyridine-7-carboxamido)ethyl)bicyclo[1.1.1]pentane-1-carboxylic acid]: the IC50 was 30 nM. The result for `C[C@@H](NC(=O)c1cncc2ccn(Cc3cc4ccccc4o3)c12)C12CC(C(=O)O)(C1)C2` [Compound 26-2, (R)-3-(1-(1-(benzofuran-2-ylmethyl)-1H-pyrrolo[3,2-c]pyridine-7-carboxamido)ethyl)bicyclo[1.1.1]pentane-1-carboxylic acid] reads above 100 nM. For `O=C(NC1(C23CC(C(=O)O)(C2)C3)CC1)c1cncc2ccn(Cc3cc4cc(F)ccc4o3)c12` [Compound 27, 3-(1-(1-((5-Fluorobenzofuran-2-yl)methyl)-1H-pyrrolo[3,2-c]pyridine-7-carboxamido)cyclopropyl)bicyclo[1.1.1]pentane-1-carboxylic acid], the IC50 is 1.2 nM. As to `O=C(NC1(C23CC(C(=O)O)(C2)C3)CC1)c1cncc2ccn(Cc3cc4cc(C(F)(F)F)ccc4o3)c12` [Compound 28, 3-(1-(1-((5-(Trifluoromethyl)benzofuran-2-yl)methyl)-1H-pyrrolo[3,2-c]pyridine-7-carboxamido)cyclopropyl)bicyclo[1.1.1] pentane-1-carboxylic acid], the IC50 was found to be 1.5 nM. As for `[2H]C(c1cc2ccccc2o1)n1ccc2cccc(C(=O)NC3(C45CC(C(=O)O)(C4)C5)CC3)c21` (centres unmarked) [Compound 29, 3-(1-(1-(Benzofuran-2-ylmethyl-d)-1H-indole-7-carboxamido)cyclopropyl)bicyclo[1.1.1]pentane-1-carboxylic acid], the IC50 was determined as 1.5 nM.
